{"source": "paper PMC11546719", "about": "“Immune Modulatory Profile of the Pateamines PatA and Des-Methyl Des-Amino PatA” (International Journal of Molecular Sciences, 2024)", "key": {"M2 MdMs": {"tested_on": "M2 MdMs", "parameters": "method as in PMID 36982945", "details": "summary table ref 11; cited from earlier work"}, "Human primary B cells [1]": {"tested_on": "Human primary B cells", "parameters": "method as in PMID 36982945", "details": "summary table ref 11; cited from earlier work"}, "Human primary T cells": {"tested_on": "Human primary T cells", "parameters": "method as in PMID 36982945", "details": "summary table ref 11; cited from earlier work"}, "M1 MdMs [2]": {"tested_on": "M1 MdMs", "parameters": "method as in PMID 36982945", "details": "summary table ref 11; cited from earlier work"}, "TK6 cells": {"tested_on": "TK6 cells", "assay": "Micronuclei assay", "type": "cell-based, human", "details": "4 h incubation then 44 h", "description": "The In-Vitro Micronuclei Plus assay (Becton Dickinson, Heidelberg, Germany) was performed as described by the supplier. Briefly, 2 × 10^4 TK6 cells were incubated with increasing concentrations of PatA, DMDA and silvestrol for 4 h. The cells were washed with PBS and incubated in fresh medium (without test substance) for 44 h. The cells were centrifuged (300× g) for 5 min, the […] and placed on ice for 20 min. Then, 50 µL of Complete Nucleic Acid Dye A Solution was added. The plate was placed on ice and exposed to visible light for 30 min. The Nucleic Acid Dye A solution was removed and the cells were washed with 0.15 mL of cold 1x Buffer Solution. An amount of 100 µL Complete Lysis Solution 1 was added, followed by gently mixing of the plate for 5 s and incubation of 1 h in the dark at 37 °C. Then, 100 µL Complete Lysis Solution 2 was added and incubated for 30 min in the dark at room temperature. The cells were analyzed via flow cytometry with the MACSQuant 10 (Miltenyi GmbH, Bergisch Gladbach, Germany)."}, "B cells": {"tested_on": "B cells", "assay": "Energy metabolism (Seahorse OCR/ECAR) in B cells", "type": "cell-based, human", "details": "5 days, PatA, DMDA 0.25-0.5 nM, silvestrol 5 nM, rapamycin 10 ng/mL", "description": "(§1) The determination of the energy metabolism was performed as described previously. Briefly, for the analysis of the extracellular acidification rate (ECAR) and the oxygen consumption rate (OCR) for human B cells, Tcells, M1 MdMs and M2 MdMs, the Seahorse XFe96 FluxPak (Agilent, Waldbronn, Germany) was used as recommended by the manufacturer. MdMs were polarized to M1 or M2 MdMs in the presence of PatA (0.5, 2.5, 5 nM), DMDA (0.5, 2.5, 5 nM) or vehicle (DMSO) for 48 h or 24 h, respectively. T cells were activated in the presence of PatA (0.25, 0.5 nM), DMDA (0.25, 0.5 nM), silvestrol or DMSO. B cells were activated in the presence of PatA (0.25, 0.5 nM), DMDA (0.25, 0.5 nM), silvestrol (5 nM) or rapamycin (10 ng/mL positive control). Cells were washed with Seahorse XF RPMI medium pH 7.4 (Agilent, Waldbronn, Germany) and OCR and ECAR were measured as octuplicates for a period of 160 min using the Seahorse XFe96 Analyzer (Agilent, Waldbronn, Germany) and analyzed by Wave Software 2.6.3.8 (Agilent, Waldbronn, Germany). The relative values were calculated by relating the OCR or ECAR values obtained after 50 min to the values of the vehicle control (not stimulated)."}, "M1 MdMs [3]": {"tested_on": "M1 MdMs", "parameters": "method as in PMID 36982945", "details": "M1 MdMs ref 11; cited from earlier work"}, "T cells": {"tested_on": "T cells", "assay": "Energy metabolism (Seahorse OCR/ECAR) in T cells", "type": "cell-based, human", "details": "5 days, PatA, DMDA 0.25-0.5 nM, silvestrol 5 nM", "description": "as §1"}, "Caco-2 cell barrier": {"tested_on": "Caco-2 cell barrier", "assay": "Transport assay, Caco-2 cell barrier", "type": "in vitro ADME", "description": "(§2) The transport assay was achieved as described previously. Briefly, 1 × 10^5 CaCo-2 or 5 × 10^4 Calu-3 cells in 300 µL medium were seeded on 24-well ThinCerts (pre-coated with FCS for 60 min) and in the lower compartment, 1 mL culture medium per well was added. The Caco-2 cell barrier was generated over 20 days and the Calu-3 barrier was generated over 14 days. DMDA (0 nM, 5 nM, 50 nM, 100 nM), PatA (0 nM, 5 nM, 50 nM, 100 nM), 200 µM famotidine, 200 µM lucifer yellow or 200 µM carbamazepine diluted in medium was added to the apical compartment and incubated for 4 h or 24 h. The medium from the basolateral and apical compartment was collected and stored at −20 °C and analyzed using LC-MS/MS. To obtain the transport rate, the drug amount in the basolateral compartment at 4 h or 24 h was related to the drug amount in the apical compartment (0 h).\n(§3) The detailed method for the analysis of DMDA, PatA, carbamazepine and famotidine using LC-MS/MS is described in the Supplementary Materials."}, "Calu-3 cell barrier": {"tested_on": "Calu-3 cell barrier", "assay": "Transport assay, Calu-3 cell barrier", "type": "in vitro ADME", "description": "as §2, §3"}, "Human primary B cells [4]": {"tested_on": "Human primary B cells", "assay": "B cell activation with IL-21, sCD40L, CpG and anti-IgM", "type": "cell-based", "details": "activated B cells, 5 days", "description": "B cells were activated as described by Khoenkhoen et al.. […].\nSurface marker analysis was performed as described previously. Briefly, 1.5–2 × 10^5 cells of each sample were blocked with human FcR Blocking Reagent (15 min, 4 °C). […]. Afterwards, samples were stained with a mixture of different surface marker antibodies (15 min, 4 °C) and measured with MACSQuant® Analyzer 10 flow cytometer. For M1-/M2-MdMs anti-CD86, anti-CD14, anti-HLA-DR, anti-CD206, anti-CD80, anti-TREM2 and anti-CD163 were used. For T cells, anti-CD69, anti-CD54, anti-CD49a, anti-CD18, anti-CD134, anti-CD154, anti-CD3 and anti-CD25 were analyzed. For B cells, anti-CD27, anti-CD19 and anti-CD38 were applied. For T cell and B cell proliferation assay, freshly isolated T and B cells were stained with CTV and detected using flow cytometry. Naïve B cells were characterized as CD19^+CD27^lowCD38^med, memory B cells as CD19^+CD27^med CD38^low and plasma cells as CD27^+CD38^+ cells. M1 MdMs and M2 MdMs cell population was gated using FSC/SSC channel. T cells were gated as CD3^+CD25^+ positive cells. The geometric mean of the fluorescent intensity was calculated using FlowJo software v10 (Treestar, Ashland, […], USA). Fold induction of surface marker expression was calculated using the DMSO-treated cells as the control.\nFor determination of cytokine concentrations in the supernatant of humane immune cells, cytometric bead array (BD Biosciences, Heidelberg, Germany) for IL-10, IL-17, IL-8, IL-6, IFN-γ and CCL2 was used. For the detection of CCL18, CCL17, IgG, IgA and PGE2, an ELISA was performed. The cytometric bead arrays and the ELISAs were performed according to the protocol of the supplier."}, "[5]": {"details": "4 and 24 h, PatA, DMDA 5, 50, 100 nM, controls 200 µM"}}, "note": "Where two headings read alike, the source gives them in different places."}
{"compound": "CONC(=O)[C@H]1[C@@H](O)[C@@]2(O)c3c(OC)cc(OC)cc3O[C@@]2(c2ccc(OC)cc2)[C@@H]1c1ccccc1", "note": "[CR31-B (-)]", "values": [{"measurement": "Effect on the release of inflammatory markers, M2 MdM", "setting": "M2 MdMs", "result": "TNF-α↑, CCL2↓, CCL17↓, CCL18↓,"}, {"measurement": "Effect on the release of inflammatory markers, B Cells", "setting": "Human primary B cells [1]", "result": "IgA↓, IgG↓"}, {"measurement": "Effect on the release of inflammatory markers, T Cells", "setting": "Human primary T cells", "result": "IL-10↓, IL-17↓, IFN-γ↓"}, {"measurement": "Effect on the release of inflammatory markers, M1 MdM", "setting": "M1 MdMs [2]", "result": "IL-6↓, IL-8↓, CCL2↓, CCL18↓"}]}
{"compound": "COC(=O)[C@H]1[C@@H](O)[C@@]2(O)c3c(OC)cc(O[C@@H]4O[C@@H]([C@H](O)CO)CO[C@H]4OC)cc3O[C@@]2(c2ccc(OC)cc2)[C@@H]1c1ccccc1", "note": "[Silvestrol, silvestrol]", "values": [{"measurement": "Effect on the release of inflammatory markers, M2 MdM", "setting": "M2 MdMs", "result": "IL-8↓, CCL2↓,"}, {"measurement": "Effect on the release of inflammatory markers, B Cells", "setting": "Human primary B cells [1]", "result": "IgA↓, IgG↓"}, {"measurement": "Effect on the release of inflammatory markers, T Cells", "setting": "Human primary T cells", "result": "IL-10↑, IFN-γ↑"}, {"measurement": "Genotoxic potential: micronuclei (clastogenic) and hypodiploid cells (aneugenic)", "setting": "TK6 cells", "result": "showed no genotoxic effects"}, {"measurement": "Effect on the release of inflammatory markers, M1 MdM", "setting": "M1 MdMs [2]", "result": "IL-6↓, IL-8↓, CCL2↓, TNF-α↑"}, {"measurement": "Energy metabolism: glycolysis (ECAR) and oxidative phosphorylation (OCR)", "setting": "B cells", "result": "increased glycolysis and oxidative phosphorylation"}, {"measurement": "Energy metabolism: glycolysis and oxidative phosphorylation", "setting": "M1 MdMs [3]", "result": "reduced glycolysis and oxidative phosphorylation"}, {"measurement": "Energy metabolism: glycolysis (ECAR) and oxidative phosphorylation (OCR)", "setting": "T cells", "result": "did not alter the energy metabolism"}]}
{"compound": "COc1cc2c(c(OC)n1)[C@]1(O)[C@H](O)[C@H](CN(C)C)[C@@H](c3ccccc3)[C@]1(c1ccc(C#N)cc1)O2", "note": "[Zotatifin, zotatifin]", "values": [{"measurement": "Effect on the release of inflammatory markers, M2 MdM", "setting": "M2 MdMs", "result": "IL-10↓, CCL18↓"}, {"measurement": "Effect on the release of inflammatory markers, B Cells", "setting": "Human primary B cells [1]", "result": "IgA↓, IgG↓"}, {"measurement": "Effect on the release of inflammatory markers, T Cells", "setting": "Human primary T cells", "result": "IL-10↓, IL-17↓, IFN-γ↓"}, {"measurement": "Effect on the release of inflammatory markers, M1 MdM", "setting": "M1 MdMs [2]", "result": "No effect"}]}
{"compound": "NC(=O)N1c2ccccc2C=Cc2ccccc21", "note": "[carbamazepine, reference compound]", "values": [{"measurement": "Permeability / transport rate across Caco-2 cell barrier (in words)", "setting": "Caco-2 cell barrier; [5]", "result": "high"}, {"measurement": "Permeability / transport rate across Calu-3 cell barrier (in words)", "setting": "Calu-3 cell barrier; [5]", "result": "high"}]}
{"compound": "NC(N)=Nc1nc(CSCCC(N)=NS(N)(=O)=O)cs1", "note": "[famotidine, reference compound]", "values": [{"measurement": "Permeability / transport rate across Caco-2 cell barrier (in words)", "setting": "Caco-2 cell barrier; [5]", "result": "low permeability"}, {"measurement": "Permeability / transport rate across Calu-3 cell barrier (in words)", "setting": "Calu-3 cell barrier; [5]", "result": "low permeability"}]}
{"compound": "COS(C)(=O)=O", "note": "[methylmethansulfonat (MMS), methylmethansulfonat, reference compound]", "values": [{"measurement": "Genotoxic potential: micronuclei (clastogenic) and hypodiploid cells (aneugenic)", "setting": "TK6 cells", "result": "significant increase in micronuclei and hypodiploid cells"}]}
{"compound": "CO[C@H]1C[C@@H]2CC[C@@H](C)[C@@](O)(O2)C(=O)C(=O)N2CCCC[C@H]2C(=O)O[C@H]([C@H](C)C[C@@H]2CC[C@@H](O)[C@H](OC)C2)CC(=O)[C@H](C)/C=C(\\C)[C@@H](O)[C@@H](OC)C(=O)[C@H](C)C[C@H](C)/C=C/C=C/C=C/1C", "note": "[rapamycin, reference compound]", "values": [{"measurement": "B cell activation (formation of plasma cells, proliferation, release of IgGs)", "setting": "Human primary B cells [4]", "result": "prevented B cell activation"}, {"measurement": "Cell viability (zombie staining)", "setting": "Human primary B cells [4]", "result": "did not reduce cell viability"}]}
{"compound": "lucifer yellow [reference compound]", "values": [{"measurement": "Permeability / transport rate across Caco-2 cell barrier (in words)", "setting": "Caco-2 cell barrier; Caco-2", "result": "low permeability"}, {"measurement": "Permeability / transport rate across Calu-3 cell barrier (in words)", "setting": "Calu-3 cell barrier", "result": "low permeability"}]}
